These results are taken from PMC8968710, “Structural insights into the substrate-bound condensation domains of non-ribosomal peptide synthetase AmbB” (Scientific Reports, 2022).

The target in one assay is T1, full-length AmbB (Pseudomonas aeruginosa, UniProt Q9I1H0).
T1 construct: full length, cleavable N-terminal SUMO tag (pET28a), NiNTA purified, E. coli host
The assay is described as follows: […]-alanine aminoacylation/TCA precipitation radioassay; colorimetric pyrophosphate adenylation assay. The class given is biochemical. The following applies: 5 mM ATP, 5 mM MgCl2; radioassay with labelled compound.

The target of assay [1] is T2, AmbB T–C (Pseudomonas aeruginosa, UniProt Q9I1H0).
T2 construct: T-C bidomain, residues 727-1249, GST tag cleaved (pGEX-6P-1), E. coli host, holo form made with Sfp; Ppant on Ser768
T2 sequence (Q9I1H0 727-1249): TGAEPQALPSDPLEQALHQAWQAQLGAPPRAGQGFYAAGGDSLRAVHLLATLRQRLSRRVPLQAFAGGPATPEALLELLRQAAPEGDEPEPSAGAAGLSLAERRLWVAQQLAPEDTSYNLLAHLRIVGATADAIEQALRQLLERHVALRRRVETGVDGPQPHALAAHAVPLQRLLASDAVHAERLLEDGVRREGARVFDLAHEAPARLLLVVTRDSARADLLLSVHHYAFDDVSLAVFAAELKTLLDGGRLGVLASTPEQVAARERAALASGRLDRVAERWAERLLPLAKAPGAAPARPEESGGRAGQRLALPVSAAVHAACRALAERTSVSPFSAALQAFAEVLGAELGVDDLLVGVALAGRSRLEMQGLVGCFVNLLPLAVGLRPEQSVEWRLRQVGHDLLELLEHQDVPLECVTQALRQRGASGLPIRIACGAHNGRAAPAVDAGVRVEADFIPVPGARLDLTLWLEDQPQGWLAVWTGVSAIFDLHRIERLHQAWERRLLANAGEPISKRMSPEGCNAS
The assay is described as follows: X-ray crystallography, […] Å; LC-MS. The format is binding. The following applies: covalent; on Ser768 of T domain, arm in donor channel of C domain.

For assay [2], the target named is T2, AmbB T–C. Description: X-ray crystallography, […] Å; LC-MS. The format is binding. The following applies: covalent; on Ser768 of T domain, L-Ala thioester near His953 of C domain; possible Ppant/Ppant-L-Ala mixture.

The structures appear in SMILES notation.

T1 sequence (Q9I1H0 whole entry): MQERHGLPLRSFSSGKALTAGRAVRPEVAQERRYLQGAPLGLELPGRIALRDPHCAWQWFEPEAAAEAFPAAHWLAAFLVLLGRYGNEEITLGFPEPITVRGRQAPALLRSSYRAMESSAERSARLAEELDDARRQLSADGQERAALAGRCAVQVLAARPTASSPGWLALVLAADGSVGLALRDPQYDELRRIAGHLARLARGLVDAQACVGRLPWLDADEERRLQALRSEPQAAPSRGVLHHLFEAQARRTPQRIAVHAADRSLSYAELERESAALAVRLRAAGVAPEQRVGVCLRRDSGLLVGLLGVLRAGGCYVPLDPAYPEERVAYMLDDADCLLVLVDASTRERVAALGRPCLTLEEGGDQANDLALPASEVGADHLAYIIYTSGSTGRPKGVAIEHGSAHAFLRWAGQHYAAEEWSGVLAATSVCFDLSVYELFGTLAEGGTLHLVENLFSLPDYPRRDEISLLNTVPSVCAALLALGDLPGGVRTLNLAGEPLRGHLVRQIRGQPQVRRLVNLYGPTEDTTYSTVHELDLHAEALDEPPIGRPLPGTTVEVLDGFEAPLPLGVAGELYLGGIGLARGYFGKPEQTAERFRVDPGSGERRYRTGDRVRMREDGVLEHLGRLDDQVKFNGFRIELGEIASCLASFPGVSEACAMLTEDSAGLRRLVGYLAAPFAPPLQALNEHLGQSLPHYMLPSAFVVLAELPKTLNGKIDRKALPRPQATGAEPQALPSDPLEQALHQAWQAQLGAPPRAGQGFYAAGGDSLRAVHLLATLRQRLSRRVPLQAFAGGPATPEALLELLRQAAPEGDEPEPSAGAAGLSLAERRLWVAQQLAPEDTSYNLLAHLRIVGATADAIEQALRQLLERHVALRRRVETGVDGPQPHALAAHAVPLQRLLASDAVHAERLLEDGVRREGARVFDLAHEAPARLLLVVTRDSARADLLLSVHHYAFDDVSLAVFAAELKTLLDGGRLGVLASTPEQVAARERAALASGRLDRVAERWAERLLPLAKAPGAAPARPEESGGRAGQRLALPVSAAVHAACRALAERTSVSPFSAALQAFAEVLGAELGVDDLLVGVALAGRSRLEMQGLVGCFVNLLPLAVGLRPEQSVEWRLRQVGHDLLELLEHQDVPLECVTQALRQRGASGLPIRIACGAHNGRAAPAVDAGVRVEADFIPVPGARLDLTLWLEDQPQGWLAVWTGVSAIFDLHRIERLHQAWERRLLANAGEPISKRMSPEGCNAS

As for `C[C@H](N)C(=O)O` [L-Ala], on full-length AmbB, the “14C-alanine aminoacylation/TCA precipitation radioassay; colorimetric pyrophosph” value was “apo full-length AmbB, which activates L-Ala (Supplementary Fig. S4a)”.

For the compound `CC(C)(COP(=O)(O)O)[C@@H](O)C(=O)NCCC(=O)NCCS` [Ppant], the “X-ray crystallography, 2.2 Å; LC-MS” value on AmbB T–C [1] is recorded as “Structure of holo AmbB T–C with Ppant (cyan stick) covalently attached to Ser768”.

As to `C[C@H](N)C(=O)SCCNC(=O)CCNC(=O)[C@H](O)C(C)(C)COP(=O)(O)O` [Ppant-L-Ala], the “X-ray crystallography, 2.5 Å; LC-MS” value at AmbB T–C [2] is “chains B and D exhibit relatively well-defined electron density for Ppant-L-Ala”.
